We go through 30 molecules from article PMC6008492, “Structure activity relationship studies on rhodanines and derived enethiol inhibitors of metallo-β-lactamases” (Bioorganic & Medicinal Chemistry, 2018).

A value given as a limit tells only on which side of the number the result lay.

The target of one test is T1, BcII (Bacillus cereus, UniProt P04190).
T1 construct: made in house
In words: biochemical. The following applies: enethiols 6 assayed as sodium salts; 10 min incubation; read-out: IC50 BcII (converted). The protocol:
(§1) Inhibition analyses against bacterial MBLs and SBLs were performed as described previously.[22], [24], [26] Residual enzyme activities were determined for a range of inhibitor concentrations. Non-linear regression fitting of IC50 curves was carried out using a three-parameter dose–response curve in GraphPad Prism. Errors in IC50 values are expressed as: σ(logIC50)/logIC50×IC50
(§2) We first screened the inhibitors against a representative set of presently clinically important and other MBLs[22], comprising both Class B1 enzymes (NDM-1, New Delhi MBL-1; VIM-2, Verona integron–encoded MBL-2; BcII, Bacillus cereus II MBL; SPM-1, São Paulo MBL-1; IMP-1, imipenemase MBL-1) and the Class B2 MBL CphA (carbapenem hydrolysing MBL from Aeromonas hydrophila).[22] The latter MBL (CphA) only utilises one active site Zn(II) ion in catalysis, whilst the others normally use two Zn(II) ions.
Figure S2: IC50 curves for BcII inhibition time courses. Residual activities were calculated from the initial
rate of FC5 hydrolysis after incubation of the enzyme with the inhibitor for 10 minutes. […]

Another test addresses T2, VIM-2 (Escherichia coli, UniProt Q5U7L7).
T2 construct: made in house
In words: biochemical. The following applies: enethiols 6 assayed as sodium salts; 10 min incubation; read-out: IC50 VIM-2 (converted). The protocol: as §1
as §2, with “ions. We also screened the inhibitors against a representative panel of SBLs from different classes (TEM-1, Temoneira β-lactamase-1, class A; CTX-M-15, cefotaxime hydrolysing β-lactamase from Munich 15, class A, extended spectrum β-lactamase (ESBL); AmpC E. coli, class C, and OXA-10, oxacillinase-10, class D).” for “ions.”
Figure S6: IC50 curves for VIM-2 inhibition time courses. Residual activities were calculated from the
(§3) initial rate of FC5 hydrolysis after incubation of the enzyme with the inhibitor for 10 minutes. […]

A further test has as its target T3, IMP-1 (Serratia marcescens, UniProt P52699).
T3 construct: made in house
Nature of the test: IMP-1 inhibition, fluorogenic cephalosporin (FC5) hydrolysis. The class given is biochemical. The following applies: enethiols 6 assayed as sodium salts; 10 min incubation; read-out: IC50 IMP-1 (converted). The protocol: as §1, §2
Figure S3: IC50 curves for IMP-1 inhibition time courses. Residual activities were calculated from the
initial rate of FC5 hydrolysis after incubation of the enzyme with the inhibitor for 10 minutes.

The next test deals with T4, NDM-1 (Klebsiella pneumoniae, UniProt C7C422).
T4 construct: made in house
Nature of the test: NDM-1 inhibition, fluorogenic cephalosporin (FC5) hydrolysis. Format: biochemical. The following applies: enethiols 6 assayed as sodium salts; 10 min incubation; read-out: IC50 NDM-1. The protocol:
as §1, §2
Figure S4: IC50 curves for NDM-1 inhibition time courses. Residual activities were calculated from the
as §3

Another test concerns the target SPM-1 (Pseudomonas aeruginosa, UniProt Q8G9Q0). In words: SPM-1 inhibition, fluorogenic cephalosporin (FC5) hydrolysis. Format: biochemical. The following applies: enethiols 6 assayed as sodium salts; 10 min incubation; read-out: IC50 SPM-1 (converted). The protocol: as §1, §2
Figure S5: IC50 curves for SPM-1 inhibition time courses. Residual activities were calculated from the
as §3

Sequence of SPM-1 (Q8G9Q0 entry or part of it): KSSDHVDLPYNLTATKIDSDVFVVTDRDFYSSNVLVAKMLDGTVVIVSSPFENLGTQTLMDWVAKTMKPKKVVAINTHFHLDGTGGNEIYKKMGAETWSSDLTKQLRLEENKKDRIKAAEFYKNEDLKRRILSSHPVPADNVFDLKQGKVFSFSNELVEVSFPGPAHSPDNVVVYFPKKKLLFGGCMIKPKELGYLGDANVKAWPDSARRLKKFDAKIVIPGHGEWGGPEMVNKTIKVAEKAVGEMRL
T4 sequence (C7C422 29-270, looked up, species assumed): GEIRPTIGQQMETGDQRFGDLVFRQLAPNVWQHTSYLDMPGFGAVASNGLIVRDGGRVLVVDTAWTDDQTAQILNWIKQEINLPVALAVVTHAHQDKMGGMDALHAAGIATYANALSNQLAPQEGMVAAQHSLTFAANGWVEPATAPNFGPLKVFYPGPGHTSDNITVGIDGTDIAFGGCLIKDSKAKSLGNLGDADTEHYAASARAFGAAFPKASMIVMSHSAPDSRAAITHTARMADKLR
T1 sequence (P04190 31-257): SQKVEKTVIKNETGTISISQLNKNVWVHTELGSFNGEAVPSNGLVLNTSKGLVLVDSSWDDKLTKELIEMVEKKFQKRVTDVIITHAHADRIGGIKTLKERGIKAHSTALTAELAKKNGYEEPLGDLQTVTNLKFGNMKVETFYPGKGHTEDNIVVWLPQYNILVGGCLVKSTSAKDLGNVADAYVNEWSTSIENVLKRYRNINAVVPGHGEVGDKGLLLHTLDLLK
T3 sequence (P52699 19-246, looked up, species assumed): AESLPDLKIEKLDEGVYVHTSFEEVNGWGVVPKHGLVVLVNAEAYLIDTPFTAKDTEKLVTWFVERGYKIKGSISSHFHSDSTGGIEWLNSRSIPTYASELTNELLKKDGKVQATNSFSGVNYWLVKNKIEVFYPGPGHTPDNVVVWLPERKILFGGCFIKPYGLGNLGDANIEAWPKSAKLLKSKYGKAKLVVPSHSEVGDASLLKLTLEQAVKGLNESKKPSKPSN

For orientation: IC50 means the point on the concentration scale where inhibition reaches its midpoint. Regarding `O=C(O)CN1C(=O)/C(=C/c2ccc(Br)cc2)SC1=S` [Compound 3d], the half-maximal inhibitory concentration (IC50) at BcII was more than 50 µM; on VIM-2 it was more than 50 µM; at IMP-1, more than 50 µM; at NDM-1 it was more than 50 µM; on SPM-1, 39.7 ± 0.8 µM.

With `O=C(O)CN1C(=O)/C(=C/c2csc3ccccc23)SC1=S` [Compound 3L], the half-maximal inhibitory concentration (IC50) on BcII is 21.7 ± 2.4 µM; on VIM-2, 36.9 ± 0.2 µM; at IMP-1, more than 50 µM; on NDM-1, more than 50 µM; at SPM-1, 13.9 ± 0.5 µM.

For the molecule `O=C(O)/C(S)=C/c1c(F)ccc(F)c1F` [Compound 6k], the IC50 at BcII was 0.3 µM; at VIM-2, 0.3 µM; on IMP-1, 0.4 µM; at NDM-1, 3.3 µM; on SPM-1, 0.1 µM.

For `O=C(O)CN1C(=O)/C(=C/c2c(Cl)ccc(Cl)c2Cl)SC1=S` [ML302A], the half-inhibitory concentration (IC50) on BcII is 21.3 ± 0.5 µM; on VIM-2, 3.6 ± 0.7 µM; on IMP-1 it was 9.6 ± 0.4 µM; on NDM-1, more than 50 µM; at SPM-1 it was 4.8 ± 0.3 µM.

Turning to `O=C(O)CN1C(=O)/C(=C/c2ccccc2F)SC1=S` [Compound 3f], the IC50 was more than 50 µM at BcII; 17.6 ± 0.7 µM on VIM-2; more than 50 µM on IMP-1; more than 50 µM on NDM-1; more than 50 µM on SPM-1.

As to `CN1CCN(NC(=O)CN2C(=O)/C(=C/c3cc(Cl)ccc3Cl)SC2=S)CC1` [Compound 5o], the IC50 on BcII is 15.4 µM; on VIM-2 it was more than 50 µM; on IMP-1 it was 7 µM; at NDM-1 it was more than 50 µM; on SPM-1 it was 2.8 µM.

As for `O=C(O)CN1C(=O)/C(=C/c2cccc(Cl)c2Cl)SC1=S` [Compound 3n], the IC50 at BcII is 22.1 ± 1 µM; at VIM-2, 7.6 ± 0.3 µM; on IMP-1 it was 46.2 ± 1.4 µM; at NDM-1, more than 50 µM; at SPM-1 it was 1 ± 0.1 µM.

Regarding `Cc1ccc(/C=C(\S)C(=O)O)cc1` [Compound 6b], the concentration for half-maximal inhibition (IC50) on BcII was 0.7 µM; at VIM-2, 0.4 µM; on IMP-1 it was 0.2 µM; at NDM-1 it was 3.7 µM; on SPM-1, 0.3 µM.

For `CN1CCN(NC(=O)CN2C(=O)/C(=C/c3csc4ccccc34)SC2=S)CC1` [Compound 5L], the IC50 at BcII is 7.2 µM; on VIM-2, 41.8 µM; on IMP-1 it was more than 50 µM; at NDM-1 it was more than 50 µM; at SPM-1 it was more than 50 µM.

As to `O=C(O)CN1C(=O)/C(=C/c2c(F)cccc2F)SC1=S` [Compound 3p], the half-inhibitory concentration (IC50) at BcII is more than 50 µM; on VIM-2 it was 6.8 ± 0.2 µM; on IMP-1, more than 50 µM; on NDM-1, more than 50 µM; at SPM-1 it was 32.1 ± 2.3 µM.

Regarding `O=C(O)/C(S)=C/c1ccc(F)cc1` [Compound 6c], the IC50 was 8.2 µM on BcII; 9.7 µM on VIM-2; 2.7 µM on IMP-1; 5 µM at NDM-1; 4.1 µM at SPM-1.

Turning to `Cc1cccc(C)c1/C=C1\SC(=S)N(CC(=O)NN2CCN(C)CC2)C1=O` [Compound 5q], the IC50 is 27 µM at BcII; 29.4 µM on VIM-2; 2.7 µM on IMP-1; more than 50 µM on NDM-1; 0.2 µM at SPM-1.

`O=C(O)/C(S)=C/c1csc2ccccc12` [Compound 6L]: the half-maximal inhibitory concentration (IC50) at BcII is 3.1 µM; at VIM-2, 0.5 µM; at IMP-1 it was 0.7 µM; at NDM-1, 11.1 µM; on SPM-1 it was 0.4 µM.

Turning to `O=C(O)CN1C(=O)/C(=C/c2cc(Cl)ccc2Cl)SC1=S` [Compound 3o], the concentration for half-maximal inhibition (IC50) at BcII is more than 50 µM; at VIM-2 it was more than 50 µM; on IMP-1, more than 50 µM; at NDM-1, more than 50 µM; at SPM-1 it was 16.6 ± 1 µM.

Regarding `O=C(O)CN1C(=O)/C(=C/c2ccc(F)cc2)SC1=S` [Compound 3c], the IC50 was more than 50 µM on BcII; 34.5 ± 0.6 µM at VIM-2; more than 50 µM at IMP-1; more than 50 µM on NDM-1; more than 50 µM on SPM-1.

Turning to `Cc1ccc(/C=C2\SC(=S)N(CC(=O)NN3CCN(C)CC3)C2=O)cc1` [Compound 5b], the IC50 is more than 50 µM on BcII; more than 50 µM on VIM-2; more than 50 µM at IMP-1; 28 µM on NDM-1; more than 50 µM on SPM-1.

Turning to `CN1CCN(NC(=O)CN2C(=O)/C(=C/c3ccccc3Br)SC2=S)CC1` [Compound 5h], the IC50 at BcII was 14.6 µM; on VIM-2 it was 11.4 µM; at IMP-1, 8.3 µM; on NDM-1, more than 50 µM; on SPM-1, 8.1 µM.

Turning to `Cc1cccc(C)c1/C=C1\SC(=S)N(CC(=O)O)C1=O` [Compound 3q], the 50% inhibitory concentration (IC50) at BcII is more than 50 µM; at VIM-2, 18.7 ± 1 µM; on IMP-1, more than 50 µM; on NDM-1, more than 50 µM; at SPM-1 it was more than 50 µM.

As for `O=C(O)/C(S)=C/c1ccc(Br)cc1` [Compound 6d], the IC50 at BcII was 9.9 µM; at VIM-2, 9.4 µM; at IMP-1, 3.3 µM; on SPM-1, 2.3 µM.

In the case of `CN1CCN(NC(=O)CN2C(=O)/C(=C/c3ccc(Br)cc3)SC2=S)CC1` [Compound 5d], the IC50 on BcII was more than 50 µM; at VIM-2, 44 µM; on IMP-1, 28.7 µM; at NDM-1, more than 50 µM; on SPM-1, more than 50 µM.

Regarding `O=C(O)CN1C(=O)/C(=C/c2c(Cl)cccc2Cl)SC1=S` [Compound 3m], the half-inhibitory concentration (IC50) on BcII was 41.8 ± 2.3 µM; on VIM-2 it was 0.6 ± 0.1 µM; at IMP-1 it was 18.9 ± 0.8 µM; at NDM-1 it was more than 50 µM; on SPM-1, 3.5 ± 0.4 µM.

On to `CN1CCN(NC(=O)CN2C(=O)/C(=C/c3c(F)cccc3Cl)SC2=S)CC1` [Compound 5j], for which the IC50 is 2 µM at BcII; 0.8 µM at VIM-2; 0.3 µM at IMP-1; more than 50 µM at NDM-1; 0.1 µM on SPM-1.

For the molecule `CN1CCN(NC(=O)CN2C(=O)/C(=C/c3ccccc3F)SC2=S)CC1` [Compound 5f], the IC50 on BcII is 26.3 µM; on VIM-2, 6.2 µM; at IMP-1, 22.6 µM; at NDM-1 it was more than 50 µM; at SPM-1, 42.7 µM.

Consider `O=C(O)/C(S)=C/c1ccccc1Cl` [Compound 6g], for which the IC50 was 0.9 µM on BcII; 0.4 µM at VIM-2; 0.4 µM at IMP-1; 5.1 µM at NDM-1; 0.1 µM on SPM-1.

As for `O=C(O)/C(S)=C/c1ccccc1Cc1ccc2ccccc2c1` [Compound 6s], the IC50 is 0.2 ± 0.03 µM at BcII; 0.1 ± 0.003 µM at VIM-2; 0.08 ± 0.002 µM on IMP-1; 1.1 ± 1.7 µM on NDM-1; 0.06 ± 0.003 µM on SPM-1.

For the molecule `O=C(O)/C(S)=C/c1ccccc1Br` [Compound 6h], the IC50 at BcII is 5.8 µM; at VIM-2, 2.7 µM; at IMP-1, 0.8 µM; on NDM-1 it was 16.2 µM; at SPM-1, 3.5 µM.

With `O=C(O)CN1C(=O)/C(=C/c2ccccc2)SC1=S` [Compound 3a], the 50% inhibitory concentration (IC50) at BcII is more than 50 µM; on VIM-2 it was 36.8 ± 0.3 µM; at IMP-1, more than 50 µM; on NDM-1 it was more than 50 µM; at SPM-1 it was more than 50 µM.

With `CN1CCN(NC(=O)CN2C(=O)/C(=C/c3cccc(Cl)c3Cl)SC2=S)CC1` [Compound 5n], the IC50 on BcII was 1.1 µM; on VIM-2, 39.5 µM; on IMP-1, 0.6 µM; on NDM-1, 32.8 µM; at SPM-1, 0.3 µM.

As to `O=C(O)CN1C(=O)/C(=C/c2ccccc2I)SC1=S` [Compound 3i], the IC50 on BcII is 31.7 ± 1 µM; on VIM-2 it was 5.9 ± 0.1 µM; at IMP-1, 22.4 ± 0.4 µM; on NDM-1, more than 50 µM; at SPM-1, 2 ± 0.5 µM.

In the case of `O=C(O)/C(S)=C/c1ccccc1I` [Compound 6i], the IC50 is 3.5 µM on VIM-2, 0.7 µM at IMP-1, 5 µM on NDM-1 and 1.4 µM on SPM-1.
